The test system of one experiment is HEK293. In words: Cytotoxicity against HEK293 after 24 hrs by CellTiter-Glo luminescent cell viability assay. Type of experiment: cell-based. The settings on record: Homo sapiens, HEK293, 24 h. On the technique in general: ATP-based viability assays read luminescence as a measure of living cells.
Experiment [1] has as its target T1, Mitogen-activated protein kinase 8 (Homo sapiens, UniProt P45983). The experiment in a line: Inhibition of JNK1 (unknown origin).
Experiment [2] addresses T1, Mitogen-activated protein kinase 8. The experiment in a line: Inhibition of JNK1 (unknown origin) expressed in HEK293 cells assessed as anisomycin-induced IRS-1(Ser307) phosphorylation at 10 uM incubated for 30 mins by Western blot analysis relative to anisomycin. Type of experiment: cell-based. Also noted: scale not given: the % may be the effect or the level left. A general note: In western blotting, separated proteins are transferred to a membrane and probed.

For experiment [3] the target is unchanged. In words: Inhibition of JNK1 (unknown origin) expressed in HEK293 cells assessed as anisomycin-induced c-Jun phosphorylation at 10 uM incubated for 30 mins by Western blot analysis relative to anisomycin. The class given is cell-based. Also noted: scale not given: the % may be the effect or the level left.
The target is the same in experiment [4]. The experiment in a line: Inhibition of JNK1 (unknown origin) expressed in HEK293 cells assessed as anisomycin-induced JNK phosphorylation at 10 uM incubated for 30 mins by Western blot analysis relative to anisomycin. The class given is cell-based. The arrangement: scale not given: the % may be the effect or the level left.
The target of experiment [5] is Mitogen-activated protein kinase 8 (Rattus norvegicus) (UniProt P49185). In words: Inhibition of albumin-conjugated palmitate-induced JNK1/2 phosphorylation assessed as JNK phosphorylation level in rat RINm5F cells incubated for 8 hrs. Type of experiment: cell-based.
Experiment [6] has the same target. The experiment in a line: Inhibition of JNK1 phosphorylation in rat RINm5F cells assessed as suppression of albumin-conjugated palmitate-induced IRS-1 Ser307 phosphorylation incubated for 8 hrs. The class given is cell-based. Also noted: concentration or dose not given beside the values. The settings on record: concentration not given here.

Calls of active or inactive are those of the source. The rule behind the calls is not given here. Bounds are passed on as bounds.

Sequence of Mitogen-activated protein kinase 8 (Rattus norvegicus) (P49185 whole entry): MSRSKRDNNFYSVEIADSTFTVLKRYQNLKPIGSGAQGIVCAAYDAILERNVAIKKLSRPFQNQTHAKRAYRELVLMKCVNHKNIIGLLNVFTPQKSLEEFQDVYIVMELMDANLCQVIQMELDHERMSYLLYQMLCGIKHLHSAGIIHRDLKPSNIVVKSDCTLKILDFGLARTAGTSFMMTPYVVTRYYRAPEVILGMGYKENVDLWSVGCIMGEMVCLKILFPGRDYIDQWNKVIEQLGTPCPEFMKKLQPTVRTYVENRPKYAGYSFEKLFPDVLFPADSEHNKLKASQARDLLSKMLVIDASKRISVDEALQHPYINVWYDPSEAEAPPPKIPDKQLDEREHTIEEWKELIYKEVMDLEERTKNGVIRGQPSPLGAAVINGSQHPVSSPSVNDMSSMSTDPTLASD
T1 sequence (P45983 whole entry): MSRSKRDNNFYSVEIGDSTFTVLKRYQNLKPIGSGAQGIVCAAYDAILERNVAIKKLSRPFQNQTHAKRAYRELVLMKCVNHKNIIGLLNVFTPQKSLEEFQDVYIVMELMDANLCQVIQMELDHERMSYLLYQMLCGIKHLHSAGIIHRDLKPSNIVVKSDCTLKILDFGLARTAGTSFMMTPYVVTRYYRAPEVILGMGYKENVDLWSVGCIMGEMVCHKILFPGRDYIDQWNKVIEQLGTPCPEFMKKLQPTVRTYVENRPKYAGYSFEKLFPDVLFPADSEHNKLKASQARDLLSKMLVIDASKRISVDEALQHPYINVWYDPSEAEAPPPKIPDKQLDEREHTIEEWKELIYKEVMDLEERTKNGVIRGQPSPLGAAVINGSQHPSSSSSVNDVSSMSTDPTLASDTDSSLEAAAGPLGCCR

As to `Cn1c(=O)c(Oc2c(Cl)cccc2Cl)cc2cnc(NCCN3CCOCC3)nc21`, the IC50 – broadly, the concentration needed to halve the response being measured – in the experiment on HEK293 is > 30 µM; in experiment [1], 27.1 µM. Further, the figures for the Activity in experiment [2], in experiment [3] and in experiment [4] were 71.3%, 114% and 139%, respectively.

On to `Cn1c(=O)c(Oc2ccc(F)cc2F)cc2cnc(NCCN3CCOCC3)nc21`, for which the IC50 with HEK293 is > 30 µM; in experiment [1], > 23 µM. Moreover, the Activity in experiment [2] amounted to 26.7%; in experiment [3], 102%; in experiment [4], 96.1%.

`Cn1c(=O)c(Oc2c(Cl)cccc2Cl)cc2cnc(NCc3ccccn3)nc21`: the results for the IC50 (in the experiment on HEK293; in experiment [1]) were > 30 µM and > 23 µM, respectively. Further, the Activity in experiment [2] is 2.15%; in experiment [3], 115%; in experiment [4], 35.3%.

As to `Cn1c(=O)c(Oc2ccc(F)cc2F)cc2cnc(N3CCCC(CO)C3)nc21` (stereo not drawn), the 50% inhibitory concentration (IC50) with HEK293 was > 30 µM; in experiment [1] it was > 23 µM. The results for the Activity in experiment [2], in experiment [3] and in experiment [4] were 79.4%, 103% and 21.1%, respectively.

As for `Cn1c(=O)c(Oc2c(Cl)cccc2Cl)cc2cnc(NCCc3ccccn3)nc21`, the results for the IC50 (in the experiment on HEK293; in experiment [1]) were > 30 µM and > 23 µM, respectively. Also, the Activity is 14.3% in experiment [2], 116% in experiment [3] and 81.6% in experiment [4].

Turning to `Cn1c(=O)c(Oc2ccc(F)cc2F)cc2cnc(NC3CC3)nc21`, the IC50 in the experiment on HEK293 is > 30 µM; in experiment [1], 7.17 µM. For the same compound, the values for the Activity in experiment [2], in experiment [3] and in experiment [4] were 2.61%, 142% and 174%, respectively.

As to `Cn1c(=O)c(Oc2c(Cl)cccc2Cl)cc2cnc(N3CCC(CO)CC3)nc21`, the values for the IC50 (in the experiment on HEK293; in experiment [1]) were > 30 µM and > 23 µM, respectively. Moreover, the Activity in experiment [2] was 127%; in experiment [3], 149%; in experiment [4], 119%.

For the compound `Cn1c(=O)c(Oc2ccc(F)cc2F)cc2cnc(NCCNS(C)(=O)=O)nc21`, the IC50 was > 30 µM in the experiment with HEK293 and 18.9 µM in experiment [1]. The Activity in experiment [2] worked out at 12.2%; in experiment [3], 67.5%; in experiment [4] it was 75.8%.

Turning to `O=C(O)c1ccccc1Nc1ccnc(Nc2cccc(O)c2)n1`, in the experiment with HEK293, the IC50 is > 30 µM. The Activity in experiment [2] is 161%; in experiment [3], 88%.

For the compound `O=C(O)c1ccccc1Nc1ccnc(Nc2cccc(F)c2)n1`, the figures for the IC50 (in the experiment on HEK293; in experiment [1]) were > 30 µM and 0.05 µM, respectively. The Activity in experiment [2] came to 69%; in experiment [3] it was 46%.

`Cn1c(=O)c(Oc2c(Cl)cccc2Cl)cc2cnc(NC3CCCC3)nc21`: the IC50 in the experiment with HEK293 was > 30 µM; in experiment [1], 19.3 µM. In addition, the Activity in experiment [2] amounted to 8.18%; in experiment [3], 115%; in experiment [4], 108%.

As to `Cn1c(=O)c(Oc2c(Cl)cccc2Cl)cc2cnc(Nc3ccc(N4CCC(O)CC4)cc3)nc21`, the IC50 in the experiment with HEK293 was > 30 µM; in experiment [1] it was > 23 µM. In addition, the Activity in experiment [2] came to 9.09%; in experiment [3] it was 74%; in experiment [4], 58.9%. The results for the inhibition in experiment [5] (concentration not given here) and in experiment [6] were 54% and 58%, respectively.

As to `Cn1c(=O)c(Oc2ccc(F)cc2F)cc2cnc(Nc3ccc(N4CCCC4)cc3)nc21`, the figures for the IC50 (in the experiment on HEK293; in experiment [1]) were > 30 µM and > 23 µM, respectively. The Activity in experiment [2] stood at 98.9%; in experiment [3], 108%; in experiment [4], 98.9%.

For the compound `NC(=O)c1ccccc1Nc1ccnc(Nc2cccc(O)c2)n1`, the IC50 in the experiment with HEK293 is > 30 µM; in experiment [1] it was 0.17 µM. The Activity is 97% in experiment [2] and 104% in experiment [3].

As to `Cn1c(=O)c(Oc2ccc(F)cc2F)cc2cnc(NC3CCCCC3)nc21`, the IC50 was 14 µM in the experiment with HEK293 and 16.1 µM in experiment [1]. Further, the Activity worked out at 0% in experiment [2], 32.4% in experiment [3] and 37.6% in experiment [4]. The inhibition (in general, the drop in the measured response relative to a control, in per cent) stood at 59% in experiment [5] (concentration not given here) and 93% in experiment [6].

Turning to `Cn1c(=O)c(Oc2ccc(F)cc2F)cc2cnc(NCCCNS(C)(=O)=O)nc21`, the IC50 in the experiment with HEK293 is > 30 µM; in experiment [1], 2.77 µM. For the same compound, the results for the Activity in experiment [2], in experiment [3] and in experiment [4] were 0%, 73.5% and 52.9%, respectively. Further, the inhibition result in experiment [5] was “inactive”. In experiment [6], the inhibition was found to be 87%.

As to `Cn1c(=O)c(Oc2ccc(F)cc2F)cc2cnc(NCc3ccccn3)nc21`, the IC50 with HEK293 is > 30 µM; in experiment [1] it was > 23 µM. The Activity was determined as 68.2% in experiment [2], 86.2% in experiment [3] and 68.2% in experiment [4].

With `Cn1c(=O)c(Oc2ccc(F)cc2F)cc2cnc(NC(CCO)CCO)nc21` [PAMAPIMOD], the IC50 with HEK293 was > 30 µM. Moreover, the Activity in experiment [2] amounted to 14%; in experiment [3], 94%.

As to `Cn1c(=O)c(Oc2c(Cl)cccc2Cl)cc2cnc(Nc3ccc(N4CCCC4)cc3)nc21`, the IC50 with HEK293 was > 30 µM; in experiment [1], > 23 µM. Also, the values for the Activity in experiment [2], in experiment [3] and in experiment [4] were 165%, 104% and 136%, respectively.

For `Cn1c(=O)c(Oc2c(Cl)cccc2Cl)cc2cnc(Nc3ccc(N4CCCCC4)cc3)nc21`, the IC50 was > 30 µM with HEK293 and > 23 µM in experiment [1]. The values for the Activity in experiment [2], in experiment [3] and in experiment [4] were 46.3%, 108% and 129%, respectively.

Regarding `Cn1c(=O)c(Oc2ccc(F)cc2F)cc2cnc(N3CCC(O)CC3)nc21`, the IC50 in the experiment with HEK293 was > 30 µM; in experiment [1], > 23 µM. The figures for the Activity in experiment [2], in experiment [3] and in experiment [4] were 124%, 131% and 122%, respectively.

Regarding `Cn1c(=O)c(Oc2c(Cl)cccc2Cl)cc2cnc(N3CCCC(CO)C3)nc21` (stereo not drawn), the half-maximal inhibitory concentration (IC50) in the experiment on HEK293 is > 30 µM; in experiment [1] it was > 23 µM. Further, the Activity in experiment [2] is 99.3%; in experiment [3], 103%; in experiment [4], 99.3%.

As for `CC(C)Nc1ncc2cc(Oc3ccc(F)cc3F)c(=O)n(C)c2n1`, the IC50 with HEK293 was > 30 µM; in experiment [1], 4.22 µM. For the same compound, the Activity in experiment [2] was 15%; in experiment [3], 81%.

For `Cn1c(=O)c(Oc2ccc(F)cc2F)cc2cnc(NC3CCCCCC3)nc21`, the figures for the IC50 (in the experiment with HEK293; in experiment [1]) were > 26.7 µM and 6.73 µM, respectively. Further, the Activity is 0% in experiment [2], 119% in experiment [3] and 84% in experiment [4].

Turning to `Cn1c(=O)c(Oc2ccc(F)cc2F)cc2cnc(N3CCC(CO)CC3)nc21`, the values for the IC50 (in the experiment with HEK293; in experiment [1]) were > 30 µM and > 23 µM, respectively. The Activity came to 102% in experiment [2], 121% in experiment [3] and 91.6% in experiment [4].

Turning to `Cn1c(=O)c(Oc2ccc(F)cc2F)cc2cnc(N3CCC(O)C3)nc21` (stereo not drawn), the IC50 in the experiment with HEK293 is > 30 µM; in experiment [1] it was > 23 µM. Further, the Activity stood at 51.1% in experiment [2], 111% in experiment [3] and 131% in experiment [4].

`Cn1c(=O)c(Oc2c(Cl)cccc2Cl)cc2cnc(NC3CC3)nc21`: the IC50 in the experiment on HEK293 is > 30 µM; in experiment [1], 14.9 µM. The Activity in experiment [2] is 14.7%; in experiment [3], 128%; in experiment [4], 96.1%.

For `Cn1c(=O)c(Oc2c(Cl)cccc2Cl)cc2cnc(N3CCC(O)CC3)nc21`, the values for the IC50 (in the experiment with HEK293; in experiment [1]) were > 30 µM and > 23 µM, respectively. Moreover, the results for the Activity in experiment [2], in experiment [3] and in experiment [4] were 40.5%, 99.1% and 96.3%, respectively.

With `Cn1c(=O)c(Oc2c(Cl)cccc2Cl)cc2cnc(N3CCC(O)C3)nc21` (stereo not drawn), the IC50 was > 30 µM in the experiment with HEK293 and > 23 µM in experiment [1]. The Activity in experiment [2] is 74.5%; in experiment [3] it was 82.5%; in experiment [4], 74.5%.

For `Cn1c(=O)c(Oc2ccc(F)cc2F)cc2cnc(NCc3cccc(C(F)(F)F)c3)nc21`, the IC50 was > 30 µM in the experiment with HEK293 and > 23 µM in experiment [1]. Besides, the Activity stood at 0% in experiment [2], 101% in experiment [3] and 94.1% in experiment [4].

With `Cn1c(=O)c(Oc2ccc(F)cc2F)cc2cnc(N3CCCC(O)C3)nc21` (stereo not drawn), the IC50 in the experiment with HEK293 was > 30 µM; in experiment [1] it was > 23 µM. The Activity was determined as 88.7% in experiment [2], 104% in experiment [3] and 38.1% in experiment [4].

For `Cn1c(=O)c(Oc2ccc(F)cc2F)cc2cnc(NC3CCNCC3)nc21`, the IC50 was > 30 µM in the experiment with HEK293 and 10.9 µM in experiment [1]. Also, the Activity in experiment [2] is 0%; in experiment [3], 119%; in experiment [4], 81%.

Turning to `CCOC(=O)N1CCC(Nc2ncc3cc(Oc4ccc(F)cc4F)c(=O)n(C)c3n2)CC1`, the IC50 in the experiment with HEK293 is > 30 µM; in experiment [1], 2.75 µM. For the same compound, the Activity in experiment [2] amounted to 0%; in experiment [3], 42%.

Turning to `Cn1c(=O)c(Oc2c(Cl)cccc2Cl)cc2cnc(N3CCCCC3CO)nc21` (stereo not drawn), the IC50 in the experiment on HEK293 is > 30 µM; in experiment [1], > 23 µM. In addition, the values for the Activity in experiment [2], in experiment [3] and in experiment [4] were 110%, 118% and 110%, respectively.

For `Cn1c(=O)c(Oc2c(Cl)cccc2Cl)cc2cnc(N3CCCC(O)C3)nc21` (stereo not drawn), the IC50 with HEK293 was > 30 µM; in experiment [1], > 23 µM. For the same compound, the Activity in experiment [2] was found to be 93.6%; in experiment [3], 133%; in experiment [4], 36.2%.

These data come from ChEMBL document CHEMBL3745672, “Novel compounds reducing IRS-1 serine phosphorylation for treatment of diabetes” (Bioorg Med Chem Lett, 2016).
